Reference: PubChem BioAssay AID330 (DTP/NCI, 2004)
Values joined by “and” are separate entries in the source; they are usually repeats but may differ in a detail not shown here. Equal values may be shown once. Inconclusive results and toxic doses are left out. Rule for the calls: active = survival T/C of 150% or more; inactive = T/C below 125% in these data.

Tested on: P388 leukemia ip, CD2F1 mice, survival T/C
Assay: NCI In Vivo Anticancer Drug Screen. Data for tumor model P388 Leukemia (intraperitoneal) in CD2F1 (CDF1) mice
Settings: endpoint: median survival time, higher = longer survival
Procedure, shortened: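 Mice carrying the transplanted tumor received test compound or vehicle. Survival was recorded in each group, and the value is the treated-group measurement divided by that of the vehicle-treated control group.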

[1] = dose: 15.0 mg/kg/injection, schedule: Q01DX005 (ip), vehicle: saline with Tween-80
[2] = dose: 30.0 mg/kg/injection, schedule: Q01DX005 (ip), vehicle: saline with Tween-80
[3] = dose: 50.0 mg/kg/injection, schedule: Q01DX005 (ip), vehicle: saline with Tween-80
[4] = dose: 100.0 mg/kg/injection, schedule: Q01DX005 (ip), vehicle: saline with Tween-80
[5] = dose: 200.0 mg/kg/injection, schedule: Q01DX005 (ip), vehicle: saline with Tween-80
[6] = dose: 240.0 mg/kg/injection, schedule: Q01DX005 (ip), vehicle: saline with Tween-80
[7] = dose: 50.0 mg/kg/injection, schedule: Q01DX009 (ip), vehicle: saline with Tween-80
[8] = dose: 100.0 mg/kg/injection, schedule: Q01DX009 (ip), vehicle: saline with Tween-80
[9] = dose: 200.0 mg/kg/injection, schedule: Q01DX009 (ip), vehicle: saline with Tween-80
[10] = dose: 50.0 mg/kg/injection, schedule: Q01DX009 (ip), vehicle: saline
[11] = dose: 100.0 mg/kg/injection, schedule: Q01DX009 (ip), vehicle: saline
[12] = dose: 200.0 mg/kg/injection, schedule: Q01DX009 (ip), vehicle: saline
[13] = dose: 60.0 mg/kg/injection, schedule: Q01DX005 (ip), vehicle: saline with Tween-80
[14] = dose: 120.0 mg/kg/injection, schedule: Q01DX005 (ip), vehicle: saline with Tween-80
[15] = dose: 100.0 mg/kg/injection, schedule: Q01DX009 (ip), vehicle: Klucel (hydroxypropylcellulose) (HPC)
[16] = dose: 50.0 mg/kg/injection, schedule: Q01DX009 (ip), vehicle: Klucel (hydroxypropylcellulose) (HPC)
[17] = dose: 200.0 mg/kg/injection, schedule: Q01DX009 (ip), vehicle: Klucel (hydroxypropylcellulose) (HPC)

Measured: T/C

Cc1cc2nc(CC(=O)c3cccc([N+](=O)[O-])c3)c(=O)[nH]c2cc1C
inactive: dose: 7.5 mg/kg/injection, schedule: Q01DX005 (ip), vehicle: saline with Tween-80 95 % of control | [1] 96 % of control | [2] 91 % of control

[N-]=[N+]=Nc1ccc(NCCCCCC(=O)ON2C(=O)CCC2=O)c([N+](=O)[O-])c1
inactive: [3] 106 % of control | [4] 106 % of control | [5] 106 % of control

Cc1cc2nc3n(c2cc1C)C(=O)c1cc2ccccc2cc1-3
inactive: dose: 3.12 mg/kg/injection, schedule: Q01DX009 (ip), vehicle: saline with Tween-80 97 % of control | dose: 6.25 mg/kg/injection, schedule: Q01DX009 (ip), vehicle: saline with Tween-80 94 % of control | dose: 25.0 mg/kg/injection, schedule: Q01DX009 (ip), vehicle: saline with Tween-80 88 % of control

Cc1ccc(-c2nc(N)sc2N=Nc2ccc(Cl)cc2Cl)cc1
inactive: dose: 60.0 mg/kg/injection, schedule: Q01DX005 (ip), vehicle: Klucel (hydroxypropylcellulose) (HPC) 96 % of control | dose: 120.0 mg/kg/injection, schedule: Q01DX005 (ip), vehicle: Klucel (hydroxypropylcellulose) (HPC) 96 % of control | dose: 240.0 mg/kg/injection, schedule: Q01DX005 (ip), vehicle: Klucel (hydroxypropylcellulose) (HPC) 97 % of control

Cc1cc(=O)c(C(=O)NC=O)c(C)o1
inactive: dose: 50.0 mg/kg/injection, schedule: Q01DX005 (ip), vehicle: Klucel (hydroxypropylcellulose) (HPC) 99 % of control | dose: 100.0 mg/kg/injection, schedule: Q01DX005 (ip), vehicle: Klucel (hydroxypropylcellulose) (HPC) 101 % of control | dose: 200.0 mg/kg/injection, schedule: Q01DX005 (ip), vehicle: Klucel (hydroxypropylcellulose) (HPC) 117 % of control

Oc1ccc(Br)cc1C=NCCS
inactive: [1] 97 % of control | [2] 94 % of control | [6] 89 % of control

CS/C(N)=N\NC(=O)COc1ccc(Cl)cc1
inactive: [3] 100 % of control | [4] 106 % of control | [5] 100 % of control

O=C(Cc1ccccc1)N1CCc2cc3c(cc2C1Cc1cc2c(cc1Br)OCO2)OCO3 (stereo not drawn)
inactive: dose: 12.5 mg/kg/injection, schedule: Q01DX001 (ip), vehicle: saline + alcohol 98 % of control | dose: 25.0 mg/kg/injection, schedule: Q01DX001 (ip), vehicle: saline + alcohol 99 % of control | dose: 50.0 mg/kg/injection, schedule: Q01DX001 (ip), vehicle: saline + alcohol 100 % of control

CC(C)CCN=C(N)N=C(N)N
inactive: dose: 60.0 mg/kg/injection, schedule: Q01DX005 (ip), vehicle: saline 100 % of control | dose: 120.0 mg/kg/injection, schedule: Q01DX005 (ip), vehicle: saline 109 % of control

O=C(O)CN(CC(=O)O)Cc1cc2c(cc1O)Oc1cc(O)c(CN(CC(=O)O)CC(=O)O)cc1C21OC(=O)c2ccccc21
inactive: [7] 105 % of control | [8] 101 % of control | [9] 97 % of control

O=C(O)CC(=O)C(=O)O
inactive: dose: 100.0 mg/kg/injection, schedule: Q04DX002 (ip), vehicle: saline with Tween-80 98 % of control | dose: 100.0 mg/kg/injection, schedule: Q04DX002 (ip), vehicle: saline 101 % of control | dose: 200.0 mg/kg/injection, schedule: Q04DX002 (ip), vehicle: saline with Tween-80 112 % of control | dose: 200.0 mg/kg/injection, schedule: Q04DX002 (ip), vehicle: saline 97 % of control | dose: 400.0 mg/kg/injection, schedule: Q04DX002 (ip), vehicle: saline with Tween-80 112 % of control

O=[N+]([O-])CC(OCCCCO)C(Cl)(Cl)Cl (stereo not drawn)
inactive: [7] 101 % of control | [8] 96 % of control | [9] 87 % of control

O=C1C2CC3CC1CC(Cl)(C3)C2
inactive: [3] 112 % of control | [4] 98 % of control

Cc1ccc(O)c(N)c1
inactive: [7] 94 % of control | [10] 98 % of control | [8] 100 % of control | [11] 104 % of control and 119 % of control | [9] 105 % of control | [12] 108 % of control and 95 % of control | dose: 400.0 mg/kg/injection, schedule: Q01DX009 (ip), vehicle: saline with Tween-80 121 % of control

Cc1ccccc1C(=O)c1cnc(C)n1Cc1ccccc1
inactive: [13] 96 % of control | [14] 98 % of control | [6] 98 % of control

NC(=O)c1[nH]cnc1/N=N/N(CCCl)Cc1ccccc1
active: [15] 196 % of control | dose: 150.0 mg/kg/injection, schedule: Q01DX009 (ip), vehicle: Klucel (hydroxypropylcellulose) (HPC) 196 % of control | dose: 200.0 mg/kg/injection, schedule: Q04DX003 (ip), vehicle: Klucel (hydroxypropylcellulose) (HPC) 182 % of control | dose: 400.0 mg/kg/injection, schedule: Q04DX003 (ip), vehicle: Klucel (hydroxypropylcellulose) (HPC) 256 % of control
inactive: dose: 44.0 mg/kg/injection, schedule: Q01DX009 (ip), vehicle: Klucel (hydroxypropylcellulose) (HPC) 122 % of control

COc1nc(NC2OC(COC(C)=O)C(OC(C)=O)C(OC(C)=O)C2OC(C)=O)c(N=CC=Nc2c(NC3OC(COC(C)=O)C(OC(C)=O)C(OC(C)=O)C3OC(C)=O)nc(OC)[nH]c2=O)c(=O)[nH]1 (stereo not drawn)
inactive: [13] 89 % of control | [14] 90 % of control | [6] 95 % of control

CN(C)C(=S)C(O)(c1ccccc1)c1ccccc1
inactive: [16] 90 % of control | [15] 100 % of control | [17] 97 % of control

O=C(CC(=O)N1CCN=C1Nc1c(Cl)cccc1Cl)c1ccc(Cl)cc1
inactive: dose: 6.25 mg/kg/injection, schedule: Q01DX009 (ip), vehicle: Klucel (hydroxypropylcellulose) (HPC) 109 % of control | dose: 12.5 mg/kg/injection, schedule: Q01DX009 (ip), vehicle: Klucel (hydroxypropylcellulose) (HPC) 105 % of control | dose: 25.0 mg/kg/injection, schedule: Q01DX009 (ip), vehicle: Klucel (hydroxypropylcellulose) (HPC) 96 % of control

CON(C)c1nc(N(C)C)nc(N(C)C)n1
inactive: [10] 91 % of control | [11] 98 % of control | [12] 96 % of control

COC(=O)C12CN(C)CC(C(=O)OC)(C1=O)C(c1ccccc1)OC2c1ccccc1 (stereo not drawn)
inactive: [13] 107 % of control and 98 % of control | [14] 99 % of control | [6] 98 % of control and 90 % of control

CNC(=S)NNC1=NC(=S)NC1(C)C
inactive: [10] 98 % of control | [11] 103 % of control | [12] 101 % of control

Cc1ccc(NC(=O)NNC(=O)CNC(=O)Nc2n[nH]c(=S)s2)c(C)c1
inactive: [7] 92 % of control | [8] 86 % of control | [9] 91 % of control

CSc1nc2ccc(N=Cc3ccc([N+](=O)[O-])cc3)cc2s1
inactive: [16] 98 % of control | [15] 86 % of control | [17] 87 % of control and 92 % of control

c1ccc(-c2csc(=[N+]3CCCCC3)s2)cc1
inactive: dose: 6.25 mg/kg/injection, schedule: Q01DX009 (ip), vehicle: water 111 % of control and 117 % of control and 124 % of control

CN(C)c1nc(OC2C(C(O)CO)OC3OC(C)(C)OC32)nc(N(C)C)n1 (stereo not drawn)
inactive: dose: 100.0 mg/kg/injection, schedule: Q04DX003 (ip), vehicle: saline with Tween-80 105 % of control | dose: 200.0 mg/kg/injection, schedule: Q04DX003 (ip), vehicle: saline with Tween-80 95 % of control | dose: 400.0 mg/kg/injection, schedule: Q04DX003 (ip), vehicle: saline with Tween-80 92 % of control

CCCCCCC[CH2][Sn]([CH2]CCCCCCC)([S]CC(=O)OCCCC)[S]CC(=O)OCCCC
inactive: [10] 99 % of control | [11] 92 % of control and 95 % of control | [12] 92 % of control and 94 % of control

CNC(=O)OCc1cc(C)cc(C)c1-c1ccco1
inactive: [7] 101 % of control | [8] 98 % of control | [9] 95 % of control
